Drawing on PubChem BioAssay AID1963429 (Molecular Pharmacology Branch, DTP, NCI, 2024), this text covers IC50 and viability, T/C for six compounds.

“And” between values parts separate entries of the source, which are not always exact repeats. Equal entries are not always repeated.

For the test, the system named is 126254-015-R-J1-PDC complex spheroid growth, % test/control. The test is described as follows: Anticancer human tumor 126254-015-R-J1-PDC patient-derived soft tissue sarcoma cell line growth inhibition [Asc]. Conditions: for viability, T/C: stronger effect = lower value. The essentials: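 Tumor cells were grown as multicellular spheroids with stromal HUVEC and mesenchymal stem cells and treated singly or in combination. Concentrations fell in half-log steps from the clinical Cmax, or from 10 microM where none was known.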

Where [1] appears, read: curve of first compound, second compound 0.1 µM.
Setting [2] is: curve of first compound, second compound 0.316 µM.
Where [3] appears, read: curve of first compound, second compound 1 µM.
The mark [4] stands for this setting: second compound 0.1 µM, first compound 0.0316 µM.
Where [5] appears, read: second compound 0.1 µM, first compound 0.1 µM.
[6] abbreviates: second compound 0.1 µM, first compound 0.316 µM.
Where [7] appears, read: second compound 0.1 µM, first compound 1 µM.
Setting [8] is: second compound 0.316 µM, first compound 0.0316 µM.
Where [9] appears, read: second compound 0.316 µM, first compound 0.1 µM.
The mark [10] stands for this setting: second compound 0.316 µM, first compound 0.316 µM.
[11] abbreviates: second compound 0.316 µM, first compound 1 µM.
Setting [12] is: second compound 1 µM, first compound 0.0316 µM.
The mark [13] stands for this setting: second compound 1 µM, first compound 0.1 µM.
Setting [14] is: second compound 1 µM, first compound 0.316 µM.
[15] abbreviates: second compound 1 µM, first compound 1 µM.
[16] abbreviates: curve of first compound, second compound 3.16 µM.
Where [17] appears, read: curve of first compound, second compound 10 µM.
Where [18] appears, read: second compound 0.1 µM, first compound 0.00316 µM.
The mark [19] stands for this setting: second compound 0.1 µM, first compound 0.01 µM.
Where [20] appears, read: second compound 0.316 µM, first compound 0.00316 µM.
Setting [21] is: second compound 0.316 µM, first compound 0.01 µM.
Where [22] appears, read: second compound 1 µM, first compound 0.00316 µM.
Setting [23] is: second compound 1 µM, first compound 0.01 µM.
The mark [24] stands for this setting: second compound 3.16 µM, first compound 0.00316 µM.
The mark [25] stands for this setting: second compound 3.16 µM, first compound 0.01 µM.
Setting [26] is: second compound 3.16 µM, first compound 0.0316 µM.
Setting [27] is: second compound 3.16 µM, first compound 0.1 µM.
[28] abbreviates: second compound 10 µM, first compound 0.00316 µM.
[29] abbreviates: second compound 10 µM, first compound 0.01 µM.
The mark [30] stands for this setting: second compound 10 µM, first compound 0.0316 µM.
Where [31] appears, read: second compound 10 µM, first compound 0.1 µM.
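Note: spheroids exposed to compound for seven days.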
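Throughout, for viability, T/C: 100% = DMSO vehicle control wells.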

For the compound `O=C(c1cc(Cc2n[nH]c(=O)c3ccccc23)ccc1F)N1CCN(C(=O)C2CC2)CC1` + CNC(C)C(=O)NC1CN(S(=O)(=O)c2cccc(S(=O)(=O)N3CCC4CCC(C(=O)NC(c5ccccc5)c5ccccc5)N4C(=O)C(NC(=O)C(C)NC)C3)c2)CCC2CCC(C(=O)NC(c3ccccc3)c3ccccc3)N2C1=O, the concentration for half-maximal inhibition (IC50) – broadly, the concentration that gives 50% inhibition – is, setting by setting: (curve of first compound, second compound 0.01 µM) 9050 nM; (curve of first compound, second compound 0.0316 µM) 6180 nM; under setting [1], 2770 nM; under setting [2], 3610 nM; under setting [3], 1850 nM. The viability, T/C (in general, the ratio of treated to control) runs as follows: (second compound 0.01 µM, first compound 0.0316 µM) 97.3%; (second compound 0.01 µM, first compound 0.1 µM) 89.8%; (second compound 0.01 µM, first compound 0.316 µM) 94.5%; (second compound 0.01 µM, first compound 1 µM) 82.8%; (second compound 0.01 µM, first compound 3.16 µM) 77.6%; (second compound 0.01 µM, first compound 10 µM) 47.1%. The viability, T/C runs as follows: (second compound 0.0316 µM, first compound 0.0316 µM) 85.1%; (second compound 0.0316 µM, first compound 0.1 µM) 82.4%; (second compound 0.0316 µM, first compound 0.316 µM) 78.2%; (second compound 0.0316 µM, first compound 1 µM) 80.2%; (second compound 0.0316 µM, first compound 3.16 µM) 55.1%; (second compound 0.0316 µM, first compound 10 µM) 46.3%. Further, the viability, T/C under setting [4] is 66.2%; the viability, T/C under setting [5] is 77.8%; the viability, T/C under setting [6] is 75.4%; the viability, T/C under setting [7] is 59.6%; the viability, T/C (second compound 0.1 µM, first compound 3.16 µM) was 49.8%; the viability, T/C (second compound 0.1 µM, first compound 10 µM) was 27.4%. Besides, the viability, T/C reads like this: under setting [8], 62.2%; under setting [9], 56.4%; under setting [10], 59.7%; under setting [11], 57.8%; (second compound 0.316 µM, first compound 3.16 µM) 52.9%; (second compound 0.316 µM, first compound 10 µM) 29%. For the same compound, the viability, T/C under setting [12] is 54.7%; the viability, T/C under setting [13] was 62.2%; the viability, T/C under setting [14] is 61.4%; the viability, T/C under setting [15] was 54.9%; the viability, T/C (second compound 1 µM, first compound 3.16 µM) is 44.9%; the viability, T/C (second compound 1 µM, first compound 10 µM) was 22.2%.

Consider `O=C(c1cc(Cc2n[nH]c(=O)c3ccccc23)ccc1F)N1CCN(C(=O)C2CC2)CC1`, for which the viability, T/C (compound 0.0316 µM) was 95.9% and 107% and 96.9%; the viability, T/C (compound 0.1 µM) was 93.1% and 96.8% and 103%; the viability, T/C (compound 0.316 µM) was 88.4% and 102% (2×); the viability, T/C (compound 1 µM) was 86.6% and 93.3% and 97.7%; the viability, T/C (compound 3.16 µM) is 79.3% and 83.1% and 87.7%; the viability, T/C (compound 10 µM) was 64.2% and 68.1% and 68.5%. Besides, the IC50 (curve of compound) was over 10000 nM.

With `C=CC(=O)N1CCN(c2nc(=O)n(-c3c(C)ccnc3C(C)C)c3nc(-c4c(O)cccc4F)c(F)cc23)C(C)C1` (stereo unspecified), the viability, T/C is 93.4% and 99.9% and 105% (compound 0.0316 µM); 106% and 97.6% and 110% (compound 0.1 µM); 107% and 115% and 109% (compound 0.316 µM); 102% and 111% and 112% (compound 1 µM); 120% and 116% and 110% (compound 3.16 µM); 88.8% and 91% and 102% (compound 10 µM). For the same compound, the IC50 (curve of compound) is over 10000 nM.

`COc1c(OCCCN2CCOCC2)ccc2c3n(c(=NC(=O)c4cnc(N)nc4)nc12)CCN3` + Cc1c(S(C)(=O)=O)c(-c2cc(F)cc(N3CCN(c4ccc(NS(=O)(=O)c5ccc(NC(CCN6CCC(C(=O)OCCCP(=O)(O)O)CC6)CSc6ccccc6)c(S(=O)(=O)C(F)(F)F)c5)cc4)CC3)c2)c(-c2ccc(Cl)cc2)n1C(C)C: the half-inhibitory concentration (IC50) stood at 48.5 nM under setting [1]; 43.8 nM under setting [2]; 47.9 nM under setting [3]; 42 nM under setting [16]; 45.3 nM under setting [17]. Moreover, the viability, T/C by setting is: under setting [18], 96.5%; under setting [19], 84.5%; under setting [4], 63.5%; under setting [5], 28.3%; under setting [6], 16%; under setting [7], 8.08%. Besides, the viability, T/C by setting is: under setting [20], 88%; under setting [21], 76.6%; under setting [8], 59.1%; under setting [9], 29.7%; under setting [10], 15.3%; under setting [11], 8.05%. Besides, the viability, T/C under setting [22] was 83.7%; the viability, T/C under setting [23] was 75.5%; the viability, T/C under setting [12] is 61.9%; the viability, T/C under setting [13] is 30.4%; the viability, T/C under setting [14] is 14.9%; the viability, T/C under setting [15] is 8.15%. The viability, T/C was 77.5% under setting [24]; 77.5% under setting [25]; 54.9% under setting [26]; 30.1% under setting [27]; 14.3% (second compound 3.16 µM, first compound 0.316 µM); 8.66% (second compound 3.16 µM, first compound 1 µM). The viability, T/C under setting [28] is 84.2%; the viability, T/C under setting [29] was 87.7%; the viability, T/C under setting [30] is 55.6%; the viability, T/C under setting [31] is 30.6%; the viability, T/C (second compound 10 µM, first compound 0.316 µM) is 15.8%; the viability, T/C (second compound 10 µM, first compound 1 µM) was 7.09%.

In the case of `COc1c(OCCCN2CCOCC2)ccc2c3n(c(=NC(=O)c4cnc(N)nc4)nc12)CCN3`, the viability, T/C was 98.8% and 93% and 88.2% (compound 0.00316 µM); 87.4% and 90.6% and 95.3% (compound 0.01 µM); 60.5% and 65.2% and 66.9% (compound 0.0316 µM); 37.3% and 29.9% and 45.1% (compound 0.1 µM); 16.1% and 17.7% and 24.1% (compound 0.316 µM); 9.83% and 12.4% and 16.3% (compound 1 µM). Further, the IC50 (curve of compound) was 53.6 nM and 52.5 nM and 76 nM.

As for `NC1CCC(NC2CC2c2ccccc2)CC1` (stereo unspecified) + Cc1c(S(C)(=O)=O)c(-c2cc(F)cc(N3CCN(c4ccc(NS(=O)(=O)c5ccc(NC(CCN6CCC(C(=O)OCCCP(=O)(O)O)CC6)CSc6ccccc6)c(S(=O)(=O)C(F)(F)F)c5)cc4)CC3)c2)c(-c2ccc(Cl)cc2)n1C(C)C, the 50% inhibitory concentration (IC50) is over 100 nM under setting [1]; over 100 nM under setting [2]; over 100 nM under setting [3]; over 100 nM under setting [16]; over 100 nM under setting [17]. Also, the viability, T/C (second compound 0.1 µM, first compound 0.000316 µM) is 94.6%; the viability, T/C (second compound 0.1 µM, first compound 0.001 µM) is 88.8%; the viability, T/C under setting [18] was 76.7%; the viability, T/C under setting [19] is 75.4%; the viability, T/C under setting [4] is 84%; the viability, T/C under setting [5] is 77.6%. In addition, the viability, T/C (second compound 0.316 µM, first compound 0.000316 µM) is 74.4%; the viability, T/C (second compound 0.316 µM, first compound 0.001 µM) is 76.5%; the viability, T/C under setting [20] was 75.3%; the viability, T/C under setting [21] is 70.1%; the viability, T/C under setting [8] is 66.5%; the viability, T/C under setting [9] is 76.1%. Also, the viability, T/C is 79% (second compound 1 µM, first compound 0.000316 µM); 81.2% (second compound 1 µM, first compound 0.001 µM); 73.1% under setting [22]; 71.4% under setting [23]; 73.8% under setting [12]; 60.3% under setting [13]. For the same compound, the viability, T/C was 81.5% (second compound 3.16 µM, first compound 0.000316 µM); 73.1% (second compound 3.16 µM, first compound 0.001 µM); 73.9% under setting [24]; 71.2% under setting [25]; 62.3% under setting [26]; 65% under setting [27]. The viability, T/C reads like this: (second compound 10 µM, first compound 0.000316 µM) 69.6%; (second compound 10 µM, first compound 0.001 µM) 69.1%; under setting [28], 70.4%; under setting [29], 71.3%; under setting [30], 61.1%; under setting [31], 58.2%.
